In patent publication US7851471B2, “Compounds I” (AstraZeneca AB (PUBL), priority 2007, dated 2010):
pEC50: −log10 of the molar value.

Key:
[1] = tested on: JEG-3 cells (choriocarcinoma cell line); conditions: Biol. Reprod. (2007) 76: 203-10; cited from earlier work
[2] = tested on: JEG-3 cells (choriocarcinoma cell line); assay: Leptin assay in non-recombinant system: [3H]-thymidine incorporation / proliferation of JEG-3 cells; assay type: cell-based
Procedure: In JEG-3 cells (choriocarcinoma cell line) leptin is able to stimulate proliferation up to 3 fold (Biol. Reprod. (2007) 76: 203-10). […] The radioactivity incorporated by the cells is an index of their proliferative activity and is measured in counts per minute (CPM) with a liquid scintillation beta counter.
This finding can be applied to test whether a compound is able to either reproduce the effect of leptin on cell proliferation (leptin receptor agonist mimetic) (i.e., a given compound will cause an increase in incorporated [^3H]-Thymidine by the cells) or to inhibit the effect of leptin (antagonistic effect) by preventing the leptin-mediated increase in [H]-thymidine incorporation.

## Leptin: a hormone synthesized in fat cells that is believed to act in the hypothalamus to reduce food intake and body weight
[1]
  stimulation of proliferation: up to 3 fold
[2]; FIG. 5
  concentration giving maximal effect on [3H]-thymidine incorporation: 100 nM
[2]; FIG. 5, read-out: concentration-dependent increase in [3H]-thymidine incorporation, EC50
  pEC50: 8.68
